Test results as given in US12054562B2, “Cell-permeable inhibitory agent and methods of use thereof in treatment of cognitive and mood disorders” (priority 2015, dated 2024).

Legend:
mice = settings: mouse, in vivo
Experimental: In the present study, mice were handled two times a day, 5 min each before start of behavioral experiments. Object recognition was assessed in a circle opaque chamber with the diameter of 38.5 cm in a regular lit room. Each mouse was habituated to the chamber for 5 min since day 3. During the training phase, the mouse was allowed to explore two identical objects for 5 min. The mouse was then returned to its home cage for a retention period of 1 h. The mouse was reintroduced to the training context and presented with one familiar object and one novel object for 5 min. Movement and interaction with the objects was recorded with a video camera that was mounted above the chamber. The exploratory behavior and mouse activity was analyzed blindly by a person with a good training and the software EthoVision, XT v11.5 provided by the Noldus Information Tech Inc., (Leesburg VA, USA). Exploratory behavior was defined as sniffing, licking, or touching the object while facing the object. Memory was assessed by measuring the novelty preference ratio (i.e., the ratio of time spent exploring the novel object to the time spent exploring both objects). […] Total interaction time with both objects was compared between groups to determine whether the treatments affected locomotor activity or exploration during the testing phase.
Specifically, we studied whether the use of the inhibitory peptide with etomidate prevented etomidate-induced memory deficits (attributed to the increase in cell surface expression of α5GABAA receptors). […] Saline and 35% propylene glycol were used as the vehicle control. NOR was conducted the next day.

[1] = tested on: α5GABAA receptor cell-surface expression; test: Receptor cell-surface ELISA assay in cultured hippocampal neurons; format: cell-based, mouse; settings: neurons treated with peptide without exposure to etomidate
[2] = tested on: etomidate-induced memory deficits in mice; test: Novel object recognition task, prevention paradigm; format: in vivo, mouse; settings: Etom 8 mg/kg plus α5 peptide 20 mg/kg i.p., NOR next day
Excerpt: The novel object recognition task involves the presentation of two identical objects for visual inspection (in the case of humans and non-human primates) and exploration in the case of rodents. After a delay, one of the original objects is presented together with a new (novel) object. Humans and animals normally spend time more time looking at (or in the case of mice, exploring) the novel object. Indeed, the test relies on the innate preference of humans and animals for novelty. The inspection or interaction time differs only if the familiar object is recognized. Otherwise, the subject spends an equal amount of time inspecting both objects. […]
In the present study, mice were handled two times a day, 5 min each before start of behavioral experiments. Object recognition was assessed in a circle opaque chamber with the diameter of 38.5 cm in a regular lit room. […] Movement and interaction with the objects was recorded with a video camera that was mounted above the chamber. The exploratory behavior and mouse activity was analyzed blindly by a person with a good training and the software EthoVision, XT v11.5 provided by the Noldus Information Tech Inc., (Leesburg VA, USA). […] Memory was assessed by measuring the novelty preference ratio (i.e., the ratio of time spent exploring the novel object to the time spent exploring both objects). […]

[3] = target: T1, α5 subunit-radixin interaction (Mus musculus, UniProt P26043); test: Co-immunoprecipitation and Western blot of α5 subunit-radixin coupling in hippocampal tissue lysate; format: binding; settings: 20 μM peptide without TAT sequence, one hour incubation
T1 construct: tissue lysate prepared from the hippocampus of adult mice; from tissue; host or cells: hippocampus of adult mice (C57BL/6J×SvEv)
Experimental: The experiments used tissue lysate prepared from the hippocampus of adult mice (C57BL/6J×SvEv, 2-4 month old, male). Hippocampal tissue was homogenized in ice-cold RIPA buffer (20 mM Tris-HCL, pH 7.5, 150 mM NaCl, 1 mM Na2EDTA, 1 mM EGTA, 1% NP-40, 1% sodium deoxycholate, 2.5 mM sodium pyrophosphate, 1 mM β-glycerophosphate) supplemented with 1 mM sodium orthovanadate and 1% protease inhibitor cocktail and 1% phosphatase inhibitor cocktail (Roche Diagnostics, GmbH, Manheim Germany). The tissue lysate was subsequently spun at 14,000 rpm for 30 min with the Microfuge 22R Centrifuge (Beckman Coulter™, Brea, California, US). The supernatant was collected and frozen at −20 C°. The next day, the supernatant, after thawing, was re-centrifuged at 14,000 rpm for another 30 min to clear the potential undissolved or pellet substances. After spinning twice, the supernatant was collected for subsequent experiments.
One hour following the incubation, the antibodies (2-4 μg) against either α5 subunit (cat #sc—31417, Santa Cruz Biotechnology, Inc., 10410 Finnell St. Dallas, TX, 75220, USA) or radixin (cat #ab91312, Abcam Inc., c/o 913860, PO Box 4090 Stn A, Toronto, ON M5W 0E9), or 4 μg of non-specific IgG protein (cat #sc—2028, Santa Cruz Biotechnology, Inc., 10410 Finnell St. Dallas, TX, 75220, USA), were added to the lysate solution. […]

T1 sequence (P26043 whole entry): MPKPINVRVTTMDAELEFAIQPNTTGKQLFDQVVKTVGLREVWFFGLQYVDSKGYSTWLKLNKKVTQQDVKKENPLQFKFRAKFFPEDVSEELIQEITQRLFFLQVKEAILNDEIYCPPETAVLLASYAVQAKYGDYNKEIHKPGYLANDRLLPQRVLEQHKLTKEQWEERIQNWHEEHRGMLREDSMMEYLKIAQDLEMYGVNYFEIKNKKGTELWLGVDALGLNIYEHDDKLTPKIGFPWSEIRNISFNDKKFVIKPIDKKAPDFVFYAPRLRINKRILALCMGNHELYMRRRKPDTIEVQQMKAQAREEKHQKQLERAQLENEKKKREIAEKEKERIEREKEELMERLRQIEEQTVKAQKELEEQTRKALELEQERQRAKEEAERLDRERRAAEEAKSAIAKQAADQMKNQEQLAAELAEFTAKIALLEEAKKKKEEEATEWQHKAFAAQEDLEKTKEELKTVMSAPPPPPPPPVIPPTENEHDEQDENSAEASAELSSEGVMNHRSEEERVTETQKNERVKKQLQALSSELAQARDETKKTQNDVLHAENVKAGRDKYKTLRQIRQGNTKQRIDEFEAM

NYFTKRGWAWDGKKAL [inhibitory peptide]
Body Angle State Bent (mice): 6 ± 3 s
Body Angle State Bent (%) (mice): 2%
Body Angle State Straight (mice): 269 ± 45 s
Body Angle State Straight (%) (mice): 98%
Body Elongation State Contracted (mice): 48 ± 66 s
Body Elongation State Contracted (%) (mice): 16%
Body Elongation State Normal (mice): 252 ± 66 s
Body Elongation State Normal (%) (mice): 84%
Body Elongation State Stretched (mice): 0 s
Rotation Frequency (mice): 5.5 ± 1.7
baseline α5GABAA receptors expression, total or cell surface level [1]: does not alter
etomidate-induced memory deficits (NOR, prevention) [2]: could prevent
association between α5 subunit and radixin [3]: reduced the association
